The numbers were not newly measured in PMC5571359, “Screening the Medicines for Malaria Venture Pathogen Box across Multiple Pathogens Reclassifies Starting Points for Open-Source Drug Discovery” (Antimicrobial Agents and Chemotherapy, 2017), which cites them from elsewhere.

Read-outs that look alike come from different tables or passages of the source.

The test system of the data set is P. falciparum ABS. Particulars: cited from earlier work; for EC50: ChEMBL Data; for IC50: read-out: Pf 3D7 Pbox IC50.
Where [1] appears, read: TCMDC, read-out: TCMDC (ref 93) EX50.
Setting [2] is: Pf 3D7, ref Pathogen Box supporting information.
Where [3] appears, read: NITD, read-out: NITD (ref 94) EC50.
[4] abbreviates: P. falciparum 3D7, ref PBox supporting information.
The mark [5] stands for this setting: P. falciparum, read-out: TCMDC (ref 93) EX50.
Setting [6] is: P. falciparum, read-out: NITD (ref 94) EC50.

Regarding `O=C(Nc1cccc(-c2ccc(NCCCN3CCCC3)nc2)c1)c1ccccc1` [MMV023953], the EC50 under setting [1] is 870 nM. Also, the IC50 under setting [2] is 850 nM.

Take `Cc1cc(C)n(-c2ccc(NC(=O)C3CCN(Cc4cnc(C)s4)CC3)cc2)n1` [MMV007625]: the EC50 under setting [3] is 810 nM. Moreover, the 50% inhibitory concentration (IC50) under setting [2] was 780 nM.

Regarding `COc1ccc(-c2cncc3ccc(C(=O)NCCCn4ccnc4)nc23)cc1` [MMV020670], the EC50 under setting [1] was 750 nM. For the same compound, the IC50 under setting [2] is 1080 nM.

Take `COc1cccc2c(C)nc(N=C(N)N)nc12` [MMV000907]: the EC50 under setting [3] is 290 nM. Under setting [2], the IC50 was 1060 nM.

As to `FC(F)(F)c1cnc(Sc2nnc(-c3ccncc3)o2)c(Cl)c1` [MMV011765], the EC50 was 1870 nM under setting [3] and 270 nM under setting [1]. Further, the IC50 under setting [2] was 270 nM.

Regarding `CN1CCN(c2nccc3[nH]c(-c4cccc(F)c4)cc23)CC1` [MMV393144], the IC50 under setting [4] was 1460 nM.

Take `Cc1nn(C)cc1C(C)Nc1nncc(-c2ccc(C(F)(F)F)cc2)n1` (stereo not drawn) [MMV019993]: the EC50 under setting [1] was 250 nM. The IC50 under setting [2] is 120 nM.

As for `O=C(NC1CC1)c1ccc(CSCc2ccccc2Cl)o1` [MMV007803], under setting [3], the EC50 was 500 nM. Moreover, under setting [2], the IC50 is 1420 nM.

Take `CCCS(=O)(=O)N1CCC(CO)(Cc2ccccc2C(F)(F)F)CC1` [MMV001059]: the EC50 by setting is: under setting [3], 1250 nM; (St Jude, read-out: St JUDE (ref 95) EC50) 3370 nM; under setting [1], 890 nM. Further, the IC50 under setting [2] is 1090 nM.

As to `OCc1ccc(-c2cncc(Nc3cccc(Cl)c3)c2)cc1` [MMV026468], the EC50 under setting [5] is 74 nM. Besides, under setting [4], the half-maximal inhibitory concentration (IC50) was 33.5 nM.

With `COc1ccccc1CNC(=O)c1cc(C2CC2)nc2c1cnn2C(C)C` [MMV020517], the EC50 under setting [1] was 1020 nM. The IC50 under setting [2] was 940 nM.

As for `CN1CCN(S(=O)(=O)c2ccc(-c3ccc4c(Nc5ccc6nn[nH]c6c5)ccnc4c3)cc2)CC1` [MMV687246], the 50% inhibitory concentration (IC50) under setting [4] was 420 nM.

In the case of `CC(=O)Nc1ccc(NC(=O)c2cc(-c3cc(Cl)ccc3O)[nH]n2)cc1` [MMV676380], the EC50 under setting [5] is 180 nM. For the same compound, under setting [4], the IC50 was 350 nM.

On to `CCc1cc(=O)n(C)c(SC(C)C(=O)Nc2ccc(F)cc2)n1` (stereo not drawn) [MMV688980], for which the EC50 under setting [6] was 760 nM. Also, the concentration for half-maximal inhibition (IC50) under setting [4] is 1970 nM.

In the case of `CCOc1ccccc1C(=O)Nc1cccc(-c2nc3ncccn3c2C)c1` [MMV019790], under setting [1], the EC50 is 850 nM. Further, the IC50 under setting [2] is 1270 nM.

For `Cc1ccc2cc(C3NC(=O)c4ccccc4N3)c(Cl)nc2c1` (stereo not drawn) [MMV019807], the EC50 under setting [1] was 950 nM. For the same compound, the IC50 under setting [2] was 1660 nM.

With `CCCNC(=O)N1CCC2(CC1)CC(=O)c1cc(C)ccc1O2` [MMV085230], under setting [6], the EC50 was 870 nM. Moreover, the IC50 under setting [4] was 2060 nM.

As to `Cc1cc(NCC(C)C)c2n[nH]c(-c3ccccc3)c2n1` [MMV021375], under setting [1], the EC50 was 740 nM. For the same compound, under setting [2], the half-maximal inhibitory concentration (IC50) is 1400 nM.

`COc1ccc(CCN2CCC(NCc3cccc(N(C)C)c3)CC2)cc1` [MMV011511]: the EC50 is 810 nM under setting [3] and 1320 nM under setting [1]. Also, the IC50 under setting [2] was 1200 nM.

On to `CCn1cnc2c(Nc3cc(F)cc(F)c3)nc(C#N)nc21` [MMV676881], for which, under setting [4], the 50% inhibitory concentration (IC50) was 900 nM.

For `O=C(C(Cc1c[nH]c2ccccc12)NS(=O)(=O)c1ccc(Cl)cc1)N1CCCCC1` (stereo not drawn) [MMV085210], the EC50 under setting [6] was 720 nM. Also, the IC50 under setting [4] is over 2000 nM.

`CC1CCCN(C(=O)C(C)Nc2cc(Cl)ccc2N2CCOCC2)C1` (stereo not drawn) [MMV020388]: under setting [1], the EC50 was 320 nM. For the same compound, the IC50 under setting [2] was 520 nM.

For the compound `COc1cc(OC)cc(C(=O)NCC2Cc3cc(Cl)cc(-c4ccncc4)c3O2)c1` (stereo not drawn) [MMV007471], the EC50 under setting [3] was 370 nM. Also, the IC50 under setting [2] is 580 nM.

Consider `Cc1ccc2[nH]c3c(NCCN(C)C)ncnc3c2c1` [MMV006372], for which the EC50 is, setting by setting: under setting [3], 170 nM; under setting [1], 870 nM. Further, the IC50 under setting [2] is 790 nM.

For the compound `COc1cc2ncnc(NC3CCN(Cc4ccccc4)CC3)c2cc1OC` [MMV006741], the EC50 under setting [3] was 400 nM. Also, under setting [2], the IC50 was 620 nM.

As to `O=C(Nc1cnc2ccccc2c1)c1cccc(-n2cnnn2)c1` [MMV084864], under setting [6], the EC50 was 170 nM. For the same compound, the IC50 under setting [4] was 540 nM.

Turning to `CC(C)(C)c1cc(C(=O)N2CCN(c3nccnc3C#N)CC2)n(Cc2ccccc2)n1` [MMV023949], under setting [1], the EC50 is 760 nM. Besides, under setting [2], the IC50 was 600 nM.

As for `COc1ccc(Cl)cc1NC(=O)CN(C)C(=O)c1cnn(-c2ccccc2)n1` [MMV020710], the EC50 under setting [1] was 230 nM. Further, under setting [2], the concentration for half-maximal inhibition (IC50) was 240 nM.

In the case of `Cc1cc(Nc2ccncc2)n2nc(C)c(-c3ccccc3Cl)c2n1` [MMV016136], the EC50 under setting [1] is 690 nM. For the same compound, the IC50 under setting [2] is 630 nM.

For `Cc1cc2ccccc2n1CC(=O)N1CC(C(=O)N2CCCCC2)Oc2ccccc21` (stereo not drawn) [MMV020520], under setting [1], the EC50 is 900 nM. Besides, under setting [2], the half-maximal inhibitory concentration (IC50) was 1080 nM.

For `O=S(=O)(c1ccc(Cl)cc1)N1CCN(C(=S)NCc2ccco2)CC1` [MMV000858], the EC50 under setting [3] is 970 nM. Besides, the IC50 under setting [2] was 1200 nM.

Consider `CC(C)NCC(=O)Nc1cccc(C(=O)Nc2cccc(C(F)(F)F)c2)c1` [MMV020165], for which, under setting [1], the EC50 is 270 nM. Also, the IC50 under setting [2] was 350 nM.

`CCN(CC)CCCN1CCN(C(=O)c2cccc(-c3noc(C(F)(F)F)n3)c2)CC1` [MMV022236]: the EC50 under setting [1] is 150 nM. Under setting [2], the IC50 was 190 nM.

As to `c1ccc2c(c1)CN(CC1CC1)CC1(CCN(Cc3c[nH]c4cnccc34)CC1)O2` [MMV023183], under setting [1], the EC50 is 900 nM. Moreover, the half-maximal inhibitory concentration (IC50) under setting [2] was 610 nM.

For the compound `CS(=O)(=O)c1cccc(-c2cnc3[nH]cc(-c4ccc(CCC(=O)O)cc4)c3c2)c1` [MMV026020], the EC50 under setting [5] was 630 nM. In addition, the IC50 under setting [4] was 500 nM.

As for `Cc1cc(NC(=O)c2ccc(S(=O)(=O)N(Cc3ccccc3)C(C)C)cc2)no1` [MMV007133], the EC50 reads like this: under setting [3], 2690 nM; under setting [1], 850 nM. Also, under setting [2], the concentration for half-maximal inhibition (IC50) was 980 nM.

Take `CC(C)C(C(=O)Nc1ccc(S(=O)(=O)N(C)C)cc1)c1ccc(Cl)cc1` (stereo not drawn) [MMV020391]: the EC50 under setting [1] is 940 nM. Moreover, under setting [2], the IC50 was 930 nM.

Regarding `O=C(Nc1ccnc(-c2cccnc2)n1)c1cc(C(F)(F)F)cc(C(F)(F)F)c1` [MMV019838], the EC50 under setting [1] is 830 nM. For the same compound, the IC50 under setting [2] was 1050 nM.

With `CC(C(=O)N1CCCC1)N1CCN(S(=O)(=O)c2ccc(C(C)(C)C)cc2)CC1` (stereo not drawn) [MMV020291], the EC50 under setting [1] was 640 nM. The IC50 under setting [2] was 900 nM.

For `Cc1noc(C)c1C(=O)N1CCCC(c2[nH]c3c(C)cccc3c2-c2ccncc2)C1` (stereo not drawn) [MMV020623], the EC50 under setting [1] is 840 nM. For the same compound, the half-maximal inhibitory concentration (IC50) under setting [2] was 940 nM.

Take `CNC(=O)c1cc(S(=O)(=O)N2CCN(c3ccccn3)CC2)cs1` [MMV020136]: under setting [1], the EC50 is 670 nM. Further, the IC50 under setting [2] was 1110 nM.

On to `CC(C)(C)c1cc(C(=O)Nc2cccnc2)cc(C(=O)Nc2cccnc2)c1` [MMV020982], for which the EC50 under setting [1] is 760 nM. Besides, the 50% inhibitory concentration (IC50) under setting [2] is 900 nM.

Take `CC(C)(C)CN1C(=O)C(c2ccccc2)(c2ccccc2)N=C1N` [MMV026550]: the EC50 under setting [5] is 520 nM. Moreover, the concentration for half-maximal inhibition (IC50) under setting [4] was 800 nM.

Take `COc1ccc(C2CC(c3cccs3)=NN2C(=O)c2ccco2)cc1OC` (stereo not drawn) [MMV019234]: under setting [1], the EC50 is 170 nM. Also, the IC50 under setting [2] was 300 nM.

In the case of `COc1ccccc1C(C)NCC(=O)Nc1cc(C(F)(F)F)ccc1Cl` (stereo not drawn) [MMV020321], the EC50 under setting [1] was 780 nM. For the same compound, the concentration for half-maximal inhibition (IC50) under setting [2] is 1380 nM.

A word on the IC50: it is the concentration needed to halve the response being measured.
